Data as given in US4518581A, “Imparting low- or anti-cariogenic property to orally-usable products” (Kabushiki Kaisha Hayashibara Seibutsu Kagaku Kenkyujo, priority 1981, dated 1985).

Assays:
[1] = molecular target: T1, water-insoluble glucan producing enzyme (Streptococcus downei, UniProt P27470); assay: Effect of saccharides on formation of water-insoluble glucan from sucrose (Experiment 3); assay type: biochemical, Streptococcus mutans 6715 strain; conditions: 1 ml 4 w/v % sucrose plus 1 ml 4 w/v % saccharide, 0.02 units enzyme, 37° C., 16 hours; for A: amounts of water-insoluble glucan formed: sucrose control 300
T1 construct: endogenous in cells; host or cells: Streptococcus mutans 6715 strain (today S. sobrinus), culture supernatant, ammonium sulfate precipitate, dialyzed
T1 sequence (P27470 39-1592): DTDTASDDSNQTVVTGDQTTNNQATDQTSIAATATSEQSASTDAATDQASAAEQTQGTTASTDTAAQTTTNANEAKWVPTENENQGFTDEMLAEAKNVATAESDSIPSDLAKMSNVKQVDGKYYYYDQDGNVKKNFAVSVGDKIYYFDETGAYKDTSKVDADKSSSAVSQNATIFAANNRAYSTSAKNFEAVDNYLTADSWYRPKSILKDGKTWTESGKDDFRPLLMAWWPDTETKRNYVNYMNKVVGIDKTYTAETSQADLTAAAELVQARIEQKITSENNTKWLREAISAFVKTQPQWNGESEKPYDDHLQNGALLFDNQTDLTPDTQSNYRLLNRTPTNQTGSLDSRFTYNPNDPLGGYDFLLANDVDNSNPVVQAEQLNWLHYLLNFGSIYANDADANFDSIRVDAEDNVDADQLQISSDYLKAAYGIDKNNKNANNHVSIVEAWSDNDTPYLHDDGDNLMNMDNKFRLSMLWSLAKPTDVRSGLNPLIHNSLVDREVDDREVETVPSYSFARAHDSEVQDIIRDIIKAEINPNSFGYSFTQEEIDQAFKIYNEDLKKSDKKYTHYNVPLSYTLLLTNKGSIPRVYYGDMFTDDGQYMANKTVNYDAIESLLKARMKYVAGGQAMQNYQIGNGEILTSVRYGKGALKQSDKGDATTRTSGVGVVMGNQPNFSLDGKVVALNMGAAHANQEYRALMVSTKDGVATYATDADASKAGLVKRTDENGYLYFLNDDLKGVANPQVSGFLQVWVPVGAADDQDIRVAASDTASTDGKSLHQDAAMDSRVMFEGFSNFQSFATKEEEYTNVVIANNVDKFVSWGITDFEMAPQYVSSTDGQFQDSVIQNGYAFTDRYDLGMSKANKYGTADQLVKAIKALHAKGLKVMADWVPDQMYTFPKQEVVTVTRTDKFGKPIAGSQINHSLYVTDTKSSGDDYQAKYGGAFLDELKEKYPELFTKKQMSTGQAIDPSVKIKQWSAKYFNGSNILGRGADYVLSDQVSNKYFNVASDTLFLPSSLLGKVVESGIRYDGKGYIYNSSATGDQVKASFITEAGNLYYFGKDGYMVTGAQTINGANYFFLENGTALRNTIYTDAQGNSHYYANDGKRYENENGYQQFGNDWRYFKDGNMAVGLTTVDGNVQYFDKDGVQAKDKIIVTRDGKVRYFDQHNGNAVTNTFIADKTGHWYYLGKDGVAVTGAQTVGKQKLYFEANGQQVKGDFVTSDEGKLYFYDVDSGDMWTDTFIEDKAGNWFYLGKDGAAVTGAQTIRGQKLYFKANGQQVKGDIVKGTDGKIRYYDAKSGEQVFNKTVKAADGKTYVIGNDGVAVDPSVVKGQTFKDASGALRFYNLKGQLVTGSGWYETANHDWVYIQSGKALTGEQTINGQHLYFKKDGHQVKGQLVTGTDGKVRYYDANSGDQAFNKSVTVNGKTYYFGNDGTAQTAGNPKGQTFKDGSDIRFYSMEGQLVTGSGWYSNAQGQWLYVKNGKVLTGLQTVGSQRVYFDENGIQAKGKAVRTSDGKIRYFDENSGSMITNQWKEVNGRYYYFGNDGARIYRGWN
Method: After completion of the cultivation, the culture was separated into cell precipitant and supernatant. Thereafter, to the supernatant was added with ammonium sulfate to give 60% saturation, and the resultant precipitant was dialyzed against 0.1M phosphate buffer (pH 7.2) to obtain an aqueous solution containing the enzyme.
The titers of the enzyme were assayed as follows: A mixture solution, consisting of 1 ml of 0.2M aqueous sucrose solution, 1 ml of water, 1 ml of 0.1M phosphate buffer containing 0.05 w/v % NaN3, and 0.5 ml of the enzyme solution (below 0.05 units), is incubated at 37° C. for 9 hours, followed by centrifugation of the reaction mixture. The resultant precipitant is mixed with 4 ml of 0.5N sodium hydroxide solution, and then incubated at this temperature for an additional one hour to dissolve the precipitant. The amount of water-insoluble glucan formed during the enzymatic reaction is then measured. One unit of the enzyme is defined as the amount of enzyme that transfers 1 μmole glucose from sucrose to the water-insoluble glucan in one minute.
Effects of some saccharides on the formation of water-insoluble glucan were tested: Water-insoluble glucan formation and inhibition thereof were determined according to the enzyme assay method as described in EXPERIMENT 1, except that the mixture solution contained sucrose, or sucrose and each saccharide as listed in TABLE I. The experiment was carried out as follows: A mixture solution, consisting of 1 ml of 4 w/v % aqueous sucrose solution, 1 ml of 4 w/v % aqueous solution of each saccharide as listed in TABLE I, 1.5 ml of 0.1M phosphate buffer containing 0.05 w/v % NaN3, and 0.5 ml of the enzyme solution (0.02 units), was incubated at 37° C. for 16 hours, and the water-insoluble glucan formation in the reaction mixture was determined according to the enzyme assy method.
In a control experiment, 1 ml of the above described saccharide solution was replaced with the same amount of water.
The inhibition degree was calculated with following equation:
Inhibition degree (%)=100-A/B×100
where A and B are respective amounts of the water-insoluble glucan formed (μg/ml) when the mixture solution contained sucrose or sucrose and each of the saccharides.

[2] = system: Streptococcus mutans 6715 strain; assay: Organic acid formation from saccharides by Streptococcus mutans cells, pH-measurement (Experiment 4); assay type: cell-based; conditions: 37° C., 30 minutes; for pH-Level of the reaction mixture (organic acid formation): cell suspension, Stephan's buffer (pH 7.0), saccharide solution; for organic acid formation from the saccharide: Streptococcus mutans 6715 cells
Method: Organic acid formation from some saccharides by Streptococcus mutans was tested: Streptococcus mutans 6715 strain was cultivaed similarly as in EXPERIMENT 1, and the cells, obtained by centrifuging the culture, were washed with 0.9 w/v % sodium chloride solution, followed by additional centrifugation. Two ml of a mixture solution, consisting of 0.2 ml of the cell suspension, prepared from about 100 ml of the culture, 1.5 ml of Stephan's buffer, and 0.3 ml aqueous solution of each saccharide as listed in TABLE II, was incubated at 37° C. for 30 minutes, followed by pH-measurement of the reaction mixture. The Stephan's buffer was prepared by the method as reported by R. M. Stephan et al., Journal of Dental Research, Vol.26, pp.15-41 (1947): One ml of Solution I, prepared by dissolving 17.89 g Na2 HPO4. 12H2 O, 7.92 g KOH and 6.81 g KH2 PO4 in water to give a final volume of 100 ml, was placed in a 100-ml volumetric flask, and mixed with about 90 ml of water. To the flask was added 1 ml of Solution II, prepared by dissolving 4.54 g KH2 PO4, 0.32 g MgSO4.7H2 O, 0.57 g CaSO4.2H2 O and 10 ml of 3.5% hydrochloric acid solution in water to give a final volume of 100 ml. This mixture was diluted with additional water to obtain 100 ml of Stephan's buffer (pH 7.0).
The results are given in TABLE II, wherein the organic acid formation from the saccharides can be estimated by the pH-values.

OC[C@H]1O[C@@H](O[C@@H]2[C@@H](CO)OC(O)(CO)[C@H]2O)[C@H](O)[C@@H](O)[C@H]1O (mixture of isomers) [Lactulose]
B: inhibition degree on water-insoluble glucan formation [1]: 12%
A: amounts of water-insoluble glucan formed [1]: 264 µg/mL
pH-Level of the reaction mixture (organic acid formation) [2]: 7.0

OC[C@H]1OC(O)C[C@@H](O)[C@@H]1O (some centres unmarked) [2-Deoxy Glucose]
B: inhibition degree on water-insoluble glucan formation [1]: 5%
A: amounts of water-insoluble glucan formed [1]: 285 µg/mL
pH-Level of the reaction mixture (organic acid formation) [2]: 7.0

OC[C@H]1O[C@@](CO)(OC[C@H]2O[C@@](CO)(O[C@H]3O[C@H](CO)[C@@H](O)[C@H](O)[C@H]3O)[C@@H](O)[C@@H]2O)[C@@H](O)[C@@H]1O [6-Kestose]
B: inhibition degree on water-insoluble glucan formation [1]: 3%
A: amounts of water-insoluble glucan formed [1]: 291 µg/mL
pH-Level of the reaction mixture (organic acid formation) [2]: 6.8

OC[C@H]1O[C@@H](O[C@H]2[C@H](O)[C@@H](O)C(O)O[C@@H]2CO)[C@H](O)[C@@H](O)[C@@H]1O (some centres unmarked) [Cellobiose]
pH-Level of the reaction mixture (organic acid formation) [2]: 7.0

OC[C@H]1OC(O)[C@H](O)[C@@H](O)[C@H]1O (stereo partly drawn) [D-Galactose]
pH-Level of the reaction mixture (organic acid formation) [2]: 7.0

OC[C@H]1OC(O)[C@H](O)[C@@H](O)[C@@H]1O (stereo partly drawn) [D-Glucose]
pH-Level of the reaction mixture (organic acid formation) [2]: 4.0

OC[C@H]1OC(O)[C@@H](O)[C@@H](O)[C@@H]1O (stereo partly drawn) [D-Mannose]
pH-Level of the reaction mixture (organic acid formation) [2]: 5.5

OC[C@@H](O)[C@@H](O)CO [Erythlitol]
B: inhibition degree on water-insoluble glucan formation [1]: 3%
A: amounts of water-insoluble glucan formed [1]: 290 µg/mL
pH-Level of the reaction mixture (organic acid formation) [2]: 7.0

OC[C@H]1O[C@@H](OC[C@H]2OC(O)[C@H](O)[C@@H](O)[C@@H]2O)[C@H](O)[C@@H](O)[C@@H]1O (some centres unmarked) [Gentiobiose]
A: amounts of water-insoluble glucan formed [1]: 300 µg/mL
pH-Level of the reaction mixture (organic acid formation) [2]: 7.0

OC[C@H](O)[C@@H](O)[C@H](O)[C@H](O)CO[C@H]1O[C@H](CO)[C@@H](O)[C@H](O)[C@H]1O [Isomaltitol]
B: inhibition degree on water-insoluble glucan formation [1]: 10%
A: amounts of water-insoluble glucan formed [1]: 270 µg/mL
pH-Level of the reaction mixture (organic acid formation) [2]: 7.0

OC[C@H](O)[C@@H](O)[C@H](O)[C@H](O)CO[C@H]1O[C@H](CO[C@H]2O[C@H](CO[C@H]3O[C@H](CO[C@H]4O[C@H](CO)[C@@H](O)[C@H](O)[C@H]4O)[C@@H](O)[C@H](O)[C@H]3O)[C@@H](O)[C@H](O)[C@H]2O)[C@@H](O)[C@H](O)[C@H]1O [Isomaltopentaitol, 6^3 -O-α-isomaltosyl isomaltotriitol]
A: amounts of water-insoluble glucan formed [1]: 66 µg/mL
organic acid formation from the saccharide [2]: no organic acid formation
pH-Level of the reaction mixture (organic acid formation) [2]: 7.0

OC[C@H]1O[C@H](OC[C@H]2OC(O)[C@H](O)[C@@H](O)[C@@H]2O)[C@H](O)[C@@H](O)[C@@H]1O (some centres unmarked) [Isomaltose]
A: amounts of water-insoluble glucan formed [1]: 72 µg/mL
pH-Level of the reaction mixture (organic acid formation) [2]: 7.0

OC[C@@H](O)[C@@H](O[C@H]1O[C@H](CO)[C@@H](O[C@H]2O[C@H](CO[C@H]3O[C@H](CO)[C@@H](O)[C@H](O)[C@H]3O)[C@@H](O)[C@H](O)[C@H]2O)[C@H](O)[C@H]1O)[C@H](O)[C@@H](O)CO [Isomaltosyl maltitol, 4^2 -O-α--isomaltosyl maltitol]
A: amounts of water-insoluble glucan formed [1]: 48 µg/mL
organic acid formation from the saccharide [2]: no organic acid formation
pH-Level of the reaction mixture (organic acid formation) [2]: 7.0

OC[C@H](O)[C@@H](O)[C@H](O)[C@H](O)CO[C@H]1O[C@H](CO[C@H]2O[C@H](CO[C@H]3O[C@H](CO)[C@@H](O)[C@H](O)[C@H]3O)[C@@H](O)[C@H](O)[C@H]2O)[C@@H](O)[C@H](O)[C@H]1O [Isomaltotetraitol, 6^2 -O-α-isomaltosyl isomaltitol]
A: amounts of water-insoluble glucan formed [1]: 45 µg/mL
organic acid formation from the saccharide [2]: no organic acid formation
pH-Level of the reaction mixture (organic acid formation) [2]: 7.0

OC[C@H](O)[C@@H](O)[C@H](O)[C@H](O)CO[C@H]1O[C@H](CO[C@H]2O[C@H](CO)[C@@H](O)[C@H](O)[C@H]2O)[C@@H](O)[C@H](O)[C@H]1O [Isomaltotriitol, 6-O-α-isomaltosyl glucitol]
A: amounts of water-insoluble glucan formed [1]: 60 µg/mL
organic acid formation from the saccharide [2]: no organic acid formation
pH-Level of the reaction mixture (organic acid formation) [2]: 7.0

OC[C@H](O)[C@@H](O)[C@H](O)[C@H](O)CO[C@H]1O[C@H](CO)[C@@H](O[C@H]2O[C@H](CO)[C@@H](O)[C@H](O)[C@H]2O)[C@H](O)[C@H]1O [Isopannitol]
B: inhibition degree on water-insoluble glucan formation [1]: 10%
A: amounts of water-insoluble glucan formed [1]: 270 µg/mL
pH-Level of the reaction mixture (organic acid formation) [2]: 7.0

OC[C@H]1O[C@H](O[C@H]2[C@H](O)[C@@H](O)[C@@H](OC[C@H]3OC(O)[C@H](O)[C@@H](O)[C@@H]3O)O[C@@H]2CO)[C@H](O)[C@@H](O)[C@@H]1O (some centres unmarked) [Isopanose]
B: inhibition degree on water-insoluble glucan formation [1]: 4%
A: amounts of water-insoluble glucan formed [1]: 282 µg/mL
pH-Level of the reaction mixture (organic acid formation) [2]: 7.0

OC1OC[C@H](O)[C@H](O)[C@H]1O (stereo partly drawn) [L-Arabinose]
B: inhibition degree on water-insoluble glucan formation [1]: 2%
A: amounts of water-insoluble glucan formed [1]: 294 µg/mL
pH-Level of the reaction mixture (organic acid formation) [2]: 7.0

O=C(CO)[C@@H](O)[C@H](O)[C@@H](O)CO [L-Sorbose]
B: inhibition degree on water-insoluble glucan formation [1]: 13%
A: amounts of water-insoluble glucan formed [1]: 261 µg/mL
pH-Level of the reaction mixture (organic acid formation) [2]: 7.0

OC[C@@H](O)[C@@H](O[C@@H]1O[C@H](CO)[C@H](O)[C@H](O)[C@H]1O)[C@H](O)[C@@H](O)CO [Lactitol]
pH-Level of the reaction mixture (organic acid formation) [2]: 7.0

OC[C@H]1O[C@@](CO)(OC[C@H]2O[C@](O)(CO)[C@@H](O)[C@@H]2O)[C@@H](O)[C@@H]1O [Levanbiose]
B: inhibition degree on water-insoluble glucan formation [1]: 4%
A: amounts of water-insoluble glucan formed [1]: 288 µg/mL
pH-Level of the reaction mixture (organic acid formation) [2]: 6.5

OC[C@@H](O)[C@@H](O[C@H]1O[C@H](CO)[C@@H](O)[C@H](O)[C@H]1O)[C@H](O)[C@@H](O)CO [Maltitol]
pH-Level of the reaction mixture (organic acid formation) [2]: 7.0

OC[C@@H](O)[C@@H](O[C@H]1O[C@H](CO)[C@@H](O[C@H]2O[C@H](CO)[C@@H](O[C@H]3O[C@H](CO)[C@@H](O[C@H]4O[C@H](CO)[C@@H](O)[C@H](O)[C@H]4O)[C@H](O)[C@H]3O)[C@H](O)[C@H]2O)[C@H](O)[C@H]1O)[C@H](O)[C@@H](O)CO [Maltopentaitol]
B: inhibition degree on water-insoluble glucan formation [1]: 12%
A: amounts of water-insoluble glucan formed [1]: 265 µg/mL
pH-Level of the reaction mixture (organic acid formation) [2]: 7.0

OC[C@H]1O[C@H](O[C@H]2[C@H](O)[C@@H](O)[C@H](O)O[C@@H]2CO)[C@H](O)[C@@H](O)[C@@H]1O [Maltose]
pH-Level of the reaction mixture (organic acid formation) [2]: 4.0

OC[C@@H](O)[C@@H](O[C@H]1O[C@H](CO)[C@@H](O[C@H]2O[C@H](CO)[C@@H](O[C@H]3O[C@H](CO)[C@@H](O)[C@H](O)[C@H]3O)[C@H](O)[C@H]2O)[C@H](O)[C@H]1O)[C@H](O)[C@@H](O)CO [Maltotetraitol]
B: inhibition degree on water-insoluble glucan formation [1]: 21%
A: amounts of water-insoluble glucan formed [1]: 236 µg/mL

OC[C@H]1O[C@@](CO)(O[C@H]2O[C@H](CO)[C@@H](O)[C@H](O)[C@H]2O)[C@@H](O)[C@@H]1O [Sucrose]
pH-Level of the reaction mixture (organic acid formation) [2]: 4.0
